Assay: excess molar enthalpy (molar enthalpy of mixing); xn = mol fraction of the nth substance listed
Conditions: 308.15 K, 100 kPa

CC1COC(=O)O1 (stereo unspecified) + CS(C)=O
Conditions	excess molar enthalpy [kcal/mol]
x2 = 0.0571	0.0186
x2 = 0.108	0.0332
x2 = 0.1538	0.0457
x2 = 0.195	0.0545
x2 = 0.2666	0.0703
x2 = 0.3264	0.0803
x2 = 0.4209	0.0915
x2 = 0.492	0.0989
x2 = 0.6857	0.0949
x2 = 0.7441	0.0856
x2 = 0.8135	0.0712
x2 = 0.9458	0.0263
x2 = 0.9721	0.0139

CCOC(=O)OCC + CS(C)=O
Conditions	excess molar enthalpy [kcal/mol]
x2 = 0.0666	0.0901
x2 = 0.1249	0.146
x2 = 0.1764	0.183
x2 = 0.2221	0.208
x2 = 0.3635	0.247
x2 = 0.4614	0.252
x2 = 0.6315	0.232
x2 = 0.7199	0.206
x2 = 0.7741	0.179
x2 = 0.8371	0.149
x2 = 0.8727	0.125
x2 = 0.9115	0.0939
x2 = 0.932	0.0755
x2 = 0.9536	0.0547

CS(C)=O + COC(=O)OC
Conditions	excess molar enthalpy [kcal/mol]
x1 = 0.0473	0.0447
x1 = 0.0904	0.0755
x1 = 0.1297	0.0989
x1 = 0.1657	0.111
x1 = 0.2296	0.129
x1 = 0.3735	0.147
x1 = 0.5438	0.145
x1 = 0.6414	0.138
x1 = 0.7045	0.127
x1 = 0.7815	0.112
x1 = 0.8267	0.097
x1 = 0.8774	0.077
x1 = 0.9051	0.0631
x1 = 0.9662	0.0246
